Results reported in patent US20090111798A1, “5,6-DIHYDRO-1H-PYRIDIN-2-ONE COMPOUNDS” (priority 2006, published 2009).
Counter-ions that a name gives are not always drawn.

Target: NS5B polymerase (Hepatitis C virus genotype 1b, UniProt P26663)
Test: biochemical
Details: NS5B polymerase inhibition; 20 nM enzyme, 75 min at 28° C.
Method: Compounds were tested for HCV polymerase inhibition. Assays were performed in a 96-well streptavidin-coated FlashPlate using 20 nM enzyme, 0.5μ Ci of [α-^33P]GTP, 0.6 μM GTP, and 250 nM 5′biotinylated oligo (rG13)/poly rC in 20 mM Tris-HCl, pH 7.5, 5 mM MgCl2, 5 mM dithiothreitol, 0.1 g/L bovine serum albumin, and 100 U/mL RNAse inhibitor. The reaction was stopped by aspiration after 75 min at 28° C. and the plate was washed several times. After washing and drying the plate, incorporated radioactivity was counted using a Microbeta scintillation counter. IC50 values were calculated relative to the uninhibited control and inhibition data were fitted to a 4-parameter IC50 equation.

Sequence of NS5B polymerase (P26663 2420-3010): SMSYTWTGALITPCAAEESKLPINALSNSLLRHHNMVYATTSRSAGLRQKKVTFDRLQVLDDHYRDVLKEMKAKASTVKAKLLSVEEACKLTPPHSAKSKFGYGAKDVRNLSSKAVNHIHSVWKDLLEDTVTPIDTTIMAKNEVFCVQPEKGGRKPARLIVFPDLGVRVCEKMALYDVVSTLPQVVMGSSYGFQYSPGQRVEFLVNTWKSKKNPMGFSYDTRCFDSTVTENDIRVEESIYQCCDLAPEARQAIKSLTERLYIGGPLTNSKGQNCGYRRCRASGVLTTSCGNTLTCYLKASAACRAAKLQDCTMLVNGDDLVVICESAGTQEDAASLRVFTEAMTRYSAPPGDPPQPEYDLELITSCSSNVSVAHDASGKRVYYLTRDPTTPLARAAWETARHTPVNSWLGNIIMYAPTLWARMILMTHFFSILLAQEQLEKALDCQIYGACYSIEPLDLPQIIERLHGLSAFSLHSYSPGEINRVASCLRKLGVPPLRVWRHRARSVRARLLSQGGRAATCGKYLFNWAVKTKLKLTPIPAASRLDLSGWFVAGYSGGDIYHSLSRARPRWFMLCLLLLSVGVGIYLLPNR

CC(C)CCN1C(=O)C(C2=NS(=O)(=O)c3cc(NS(C)(=O)=O)ccc3N2)=C(O)C2CCCCCC21 (centres unmarked) [Example 33, N-{3-[4-Hydroxy-1-(3-methyl-butyl)-2-oxo-2,4-a,5,6,7,8,9,9a-octahydro-1H-cyclohepta[b]pyridin-3-yl]-1,1-dioxo-1,4-dihydro-1λ^6-benzo[1,2,4]thiadiazin-7-yl}-methanesulfonamide]
IC50: 20 to 100 nM

CC(C)CCN1C(=O)C(C2=NS(=O)(=O)c3cc(N(C)S(C)(=O)=O)ccc3N2)=C(O)C2CCCCCC21 (centres unmarked) [Example 34, N-{3-[4-Hydroxy-1-(3-methyl-butyl)-2-oxo-2,4-a,5,6,7,8,9,9a-octahydro-1H-cyclohepta[b]pyridin-3-yl]-1,1-dioxo-1,4-dihydro-1λ^6-benzo[1,2,4]thiadiazin-7-yl}-N-methyl-methanesulfonamide]
IC50: 100 to 1000 nM

CC(C)(C)CCN1C(=O)C(C2=NS(=O)(=O)c3cc(NS(C)(=O)=O)ccc3N2)=C(O)C2CCCCCCC21 (centres unmarked) [Example 35, N-{3-[1-(3,3-Dimethyl-butyl)-4-hydroxy-2-oxo-1,2,4a,5,6,7,8,9,10,10a-decahydro-cycloocta[b]pyridin-3-yl]-1,1-dioxo-1,4-dihydro-1λ^6-benzo[1,2,4]thiadiazin-7-yl]-methanesulfonamide]
IC50: 1000 to 100000 nM

CN(c1ccc2c(c1)S(=O)(=O)N=C(C1=C(O)C3CCCCCCC3N(CCC(C)(C)C)C1=O)N2)S(C)(=O)=O (centres unmarked) [Example 36, N-{3-[1-(3,3-Dimethyl-butyl)-4-hydroxy-2-oxo-1,2,4a,5,6,7,8,9,10,10a-decahydro-cycloocta[b]pyridin-3-yl]-1,1-dioxo-1,4-dihydro-1λ^6-benzo[1,2,4]thiadiazin-7-yl]-N-methyl-methanesulfonamide]
IC50: 1000 to 100000 nM

O=C1C(C2=NS(=O)(=O)c3cc(I)ccc3N2)=C(O)[C@@H]2CCC[C@@H]2N1Cc1ccc(F)cc1 [Example 39, (4aR,7aS)-1-(4-Fluoro-benzyl)-4-hydroxy-3-(7-iodo-1,1-dioxo-1,4-dihydro-1λ^6-benzo[1,2,4]thiadiazin-3-yl)-1,4-a,5,6,7,7a-hexahydro-[1]pyrindin-2-one]
IC50: 1000 to 100000 nM

O=C1C(C2=NS(=O)(=O)c3cc(NS(=O)(=O)c4ccccc4)ccc3N2)=C(O)[C@@H]2CCC[C@@H]2N1Cc1ccc(F)cc1 [Example 40, (4aR,7aS)—N-{3-[1-(4-Fluoro-benzyl)-4-hydroxy-2-oxo-2,4-a,5,6,7,7a-hexahydro-1H-[1]pyrindin-3-yl]-1,1-dioxo-1,4-dihydro-1λ^6-benzo[1,2,4]thiadiazin-7-yl]-benzenesulfonamide]
IC50: 20 to 100 nM

O=C1C(C2=NS(=O)(=O)c3cc(N4CCCCC4)ccc3N2)=C(O)[C@@H]2CCC[C@@H]2N1Cc1ccc(F)cc1 [Example 42, (4aR,7aS)-3-(1,1-Dioxo-7-piperidin-1-yl-1,4-dihydro-1λ^6-benzo[1,2,4]thiadiazin-3-yl)-1-(4-fluoro-benzyl)-4-hydroxy-1,4-a,5,6,7,7a-hexahydro-[1]pyrindin-2-one]
IC50: 1000 to 100000 nM

O=C1C(C2=NS(=O)(=O)c3cc(C4=CCCS4(=O)=O)ccc3N2)=C(O)[C@@H]2CCC[C@@H]2N1Cc1ccc(F)cc1 [Example 44, (4aR,7aS)-3-[7-(1,1-Dioxo-4,5-dihydro-1H-1λ^6-thiophen-2-yl)-1,1-dioxo-1,4-dihydro-1λ^6-benzo[1,2,4]thiadiazin-3-yl]-1-(4-fluoro-benzyl)-4-hydroxy-1,4a,5,6,7,7a-hexahydro-[1]pyrindin-2-one]
IC50: 100 to 1000 nM

O=C1C(C2=NS(=O)(=O)c3cc(I)ccc3N2)=C(O)C2CCCCCC2N1Cc1ccc(F)cc1 (centres unmarked) [Example 46, 1-(4-Fluoro-benzyl)-4-hydroxy-3-(7-iodo-1,1-dioxo-1,4-dihydro-1λ^6-benzo[1,2,4]thiadiazin-3-yl)-1,4-a,5,6,7,8,9,9a-octahydro-cyclohepta[b]pyridin-2-one]
IC50: 1000 to 100000 nM

CS(=O)(=O)Nc1ccc2c(c1)S(=O)(=O)N=C(C1=C(O)C3CCCCC3N(C3CCCCC3)C1=O)N2 (centres unmarked) [Example 49, N-[3-(1-Cyclohexyl-4-hydroxy-2-oxo-1,2,4a,5,6,7,8,8a-octahydro-quinolin-3-yl)-1,1-dioxo-1,4-dihydro-1λ^6-benzo[1,2,4]thiadiazin-7-yl]-methanesulfonamide]
IC50: 100 to 1000 nM

O=C1C(C2=NS(=O)(=O)c3cc(I)ccc3N2)=C(O)C2CCCCC2N1Cc1ccc(F)cc1 (centres unmarked) [Example 50, 1-(4-Fluoro-benzyl)-4-hydroxy-3-(7-iodo-1,1-dioxo-1,4-dihydro-1λ^6-benzo[1,2,4]thiadiazin-3-yl)-4-a,5,6,7,8,8a-hexahydro-1H-quinolin-2-one]
IC50: 1000 to 100000 nM

O=C1C(C2=NS(=O)(=O)c3cc(NS(=O)(=O)Cc4ccccc4)ccc3N2)=C(O)[C@@H]2CCC[C@@H]2N1Cc1ccc(F)cc1 [Example 52, (4aR,7aS)-N-{3-[1-(4-Fluoro-benzyl)-4-hydroxy-2-oxo-2,4a,5,6,7,7a-hexahydro-1H-[1]pyrindin-3-yl]-1,1-dioxo-1,4-dihydro-1λ^6-benzo[1,2,4]thiadiazin-7-yl}-C-phenyl-methanesulfonamide]
IC50: 100 to 1000 nM

CS(=O)(=O)Nc1ccc2c(c1)S(=O)(=O)N=C(C1=C(O)C3CCCCCC3NC1=O)N2 (centres unmarked) [Example 59, N-[3-(4-Hydroxy-2-oxo-2,4a,5,6,7,8,9,9a-octahydro-1H-cyclohepta[b]pyridin-3-yl)-1,1-dioxo-1,4-dihydro-1λ^6-benzo[1,2,4]thiadiazin-7-yl]-methanesulfonamide]
IC50: 1000 to 100000 nM

CS(=O)(=O)Nc1ccc2c(c1)S(=O)(=O)N=C(C1=C(O)C3CCCCCC3N(NC3CCC3)C1=O)N2 (centres unmarked) [Example 60, N-[3-(1-Cyclobutylamino-4-hydroxy-2-oxo-2,4a,5,6,7,8,9,9a-octahydro-1H-cyclohepta[b]pyridin-3-yl)-1,1-dioxo-1,4-dihydro-1λ^6-benzo[1,2,4]thiadiazin-7-yl]-methanesulfonamide trifluoroaceticacid salt]
IC50: 20 to 100 nM
